As a reminder, the IC50 is the concentration at which inhibition is half-maximal. The term Ki denotes the dissociation constant of the complex between target and ligand, obtained from inhibition or displacement.

For one assay, the system named is NMDA receptor. Kind of assay: Radioligand binding: displacement of [3H]MK-801 from rat forebrain membranes. Particulars: for NMDA receptor binding / affinity: MK-801 binding to membranes. A digest of the protocol:
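Test compounds competed with tritium-labelled MK-801 for binding to brain membranes, a read-out of non-competitive NMDA antagonism.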
(In general: In a radioligand displacement assay an active substance lowers the binding of a labelled ligand.)

Assay [1] concerns transient middle cerebral artery occlusion in rats. The assay can be described thus: Transient middle cerebral artery occlusion (MCAo), infarct size evaluation. Type of assay: in vivo. Particulars: for Mortality rate: 5 mg/kg IV at 2+0 hours; for reduction of infarct size: IV, one week after the ischemic insult. A digest of the protocol:
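Male rats (320-380 g) had filament MCAo for 2 h, then reperfusion; compounds at 5 mg/kg IV in cremophor-ethanol diluted in saline were given just before thread removal or 1 h after it. Success of occlusion was judged by a drop of more than 50% in Laser Doppler flow. After one week, formaldehyde-perfused brains were taken for histological infarct volume.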

Setting [2] is: [3H]MK-801 binding, text to Figure 2, read-out: mean IC50.
[3] abbreviates: displacement of [3H]MK-801, rat forebrain membranes, read-out: NMDA BINDING IC50.

Each structure is given as a SMILES string. Where two headings read alike, the source gives them in different places.

As to `CCCCCCC(C)(C)c1cc(O)c2c(c1)OC(C)(C)[C@H]1CC=C(Cn3ccnc3)C[C@H]21` (single isomer, unassigned) [211,095-000], the “NMDA receptor binding / affinity” value with NMDA receptor was “relatively high affinity”. Besides, the IC50 at NMDA receptor (setting [2]) was 2.5 µM. Besides, the IC50 on NMDA receptor (setting [3]) was determined as 2.5 µM. Moreover, in assay [1], the Mortality rate result is on record as “No mortality” and the “reduction of infarct size” value is 60%. The “Behavioral / Neurological outcome” value in assay [1] (compared to the other treatment groups) is “fewer neurological deficits and recovered faster”.
In the case of `CCCCCCC(C)(C)c1cc(O)c2c(c1)OC(C)(C)[C@H]1CC=C(CO)C[C@H]21` [211,007-000 HU-211, 1,1 dimethyl heptyl-(3 S,4S)-7-hydroxy-Δ^6-tetrahydrocannabinol, reference compound], the “NMDA receptor binding / affinity” value in the assay on NMDA receptor is “competes with the binding of MK-801”. Also, the 50% inhibitory concentration (IC50) on NMDA receptor (setting [2]) and at NMDA receptor (setting [3]) was 10 µM each time. Also, at NMDA receptor (inhibition of [3H]MK-801 binding, read-out: inhibition constant (KI)), the inhibitory constant (Ki) was determined as 11 ± 1.3 µM. This compound also gave a Mortality rate in assay [1] of 9%. Further, in assay [1], the “reduction of infarct size” value is given as 48%.

Values taken from EP1785417A2, “Novel non-psychotropic cannabinoids” (priority 2000, dated 2001).
